Among the data in patent US8895745B2, “Bicyclic heterocyclic compounds as FGFR inhibitors” (Astex Therapeutics Limited, priority 2006, dated 2014) are IC50 values, retold here.

Structures can show the parent of a compound that is named as a salt. Bounds are passed on as bounds.

For the first experiment, the system named is LP-1 cell line. Kind of experiment: Cell-based pERK ELISA method, LP-1 cells. Conditions: Homo sapiens, LP-1, read-out: IC50 less than 1 μM or at least 50% inhibition at a concentration of 1 μM, LP-1 pERK ELISA. (In general: In an ELISA, binding on a coated surface is turned into a signal by an enzyme label.)
Experimental: LP-1 or JIM-1 multiple myeloma cells were seeded in 96 well plates at 1×10^6 cells/ml in 200 ul per well in serum free media. […] Cells were incubated for 16 h at 37° C. prior to the addition of a test compound for 30 minutes. Test compounds were administered at a 0.1% final DMSO concentration. […] ELISA plates and standards were prepared according o the standard DuoSet protocols and the relative amounts of pERK to total ERK in each sample calculated according to the standard curve.
In particular, compounds of the invention were tested against the LP-1 cell line (DSMZ no.: ACC 41) derived from human multiple myeloma.
For the molecule `CCNC(=O)Nc1cccc(-c2cnc3cc(-c4ccc(C(=O)N5CCN(C)CC5)cc4)ccn23)c1` [Example 81, 1-Ethyl-3-(3-{7-[4-(4-methyl-piperazine-1-carbonyl)-phenyl]-imidazo[1,2-a]pyridin-3-yl}-phenyl)-urea], the IC50 is less than 1 µM.

For the molecule `O=C(NCC(F)(F)F)Nc1cccc(-c2cnc3cc(Cl)ccn23)c1` [Example 228], the IC50 was less than 1 µM.

For `O=C(NCC(F)(F)F)Nc1cccc(-c2cnc3cc(-c4cccc(C(=O)N5CCOCC5)c4)ccn23)c1` [Example 150, 1-(3-{7-[3-(Morpholine-4-carbonyl)-phenyl]-imidazo[1,2-a]pyridin-3-yl}-phenyl)-3-(2,2,2-trifluoro-ethyl)-urea Hydrochloride], the IC50 is less than 1 µM.

Take `CC(=O)Nc1cccc(-c2cnc3cc(-c4ccc(OCC(O)CO)cc4)ccn23)c1` (centres unmarked) [Example 65, N-(3-{7-[4-(2,3-Dihydroxy-propoxy)-phenyl]-imidazo[1,2-a]pyridin-3-yl}-phenyl)-acetamide]: the IC50 is less than 1 µM.

Turning to `CCNC(=O)Nc1cc(OC)cc(-c2cnc3cc(-c4ccc(F)cc4)ccn23)c1` [Example 216, 1-Ethyl-3-{3-[7-(4-fluoro-phenyl)-imidazo[1,2-a]pyridin-3-yl]-5-methoxy-phenyl}-urea], the IC50 is less than 1 µM.

Turning to `CCOc1ccn2c(-c3cccc(NC(=O)NCC(F)(F)F)c3)cnc2c1` [Example 337, 1-[3-(7-Ethoxy-imidazo[1,2-a]pyridin-3-yl)-phenyl]-3-(2,2,2-trifluoro-ethyl)-urea Formate], the IC50 is less than 1 µM.

In the case of `O=C(NCC(F)(F)F)Nc1cccc(-c2cnc3cc(C4CC4)ccn23)c1` [Example 334, 1-[3-(7-Cyclopropyl-imidazo[1,2-a]pyridin-3-yl)-phenyl]-3-(2,2,2-trifluoro-ethyl)-urea Formate], the IC50 was less than 1 µM.

In the case of `CC(=O)Nc1cccc(-c2cnc3cc(-c4ccc(CN5CCOCC5)cc4)ccn23)c1` [Example 10, N-{3-[7-(4-Morpholin-4-ylmethyl-phenyl)-imidazo[1,2-a]pyridin-3-yl]-phenyl}-acetamide hydro-chloride salt], the IC50 is less than 1 µM.

Turning to `COC1CCCN(c2ccn3c(-c4cccc(NC(=O)NCC(F)(F)F)c4)cnc3c2)C1` (racemic) [Example 203, (±)-1-{3-[7-(3-Methoxy-piperidin-1-yl)-imidazo[1,2-a]pyridin-3-yl]-phenyl}-3-(2,2,2-trifluoro-ethyl)-urea], the IC50 was less than 1 µM.

Regarding `CNC(=O)/C=C/c1ccn2c(-c3cccc(NC(=O)NCC(F)(F)F)c3)cnc2c1` [Example 344, (E)-N-Methyl-3-(3-{3-[3-(2,2,2-trifluoro-ethyl)-ureido]-phenyl}-imidazo[1,2-a]pyridin-7-yl)-acrylamide], the IC50 is less than 1 µM.

In the case of `CNC(=O)c1cccc(-c2ccn3c(-c4cccc(NC(=O)NCC(F)(F)F)c4)cnc3c2)c1` [Example 247, N-Methyl-3-(3-{3-[3-(2,2,2-trifluoro-ethyl)-ureido]-phenyl}-imidazo[1,2-a]pyridin-7-yl)-benzemide Formate], the IC50 is less than 1 µM.

Consider `O=C(NCC(F)(F)F)Nc1cccc(-c2cnn3cc(-c4cn[nH]c4)cnc23)c1` [Example 155, 1-{3-[6-(1H-Pyrazol-4-yl)-pyrazolo[1,5-a]pyrimidin-3-yl]-phenyl}-3-(2,2,2-trifluoro-ethyl)-urea Hydrochloride], for which the IC50 is less than 1 µM.

Take `CC(=O)Nc1cccc(-c2cnc3ccc(-c4csc5ccccc45)cn23)c1` [Example 103, N-[3-(6-Benzo[b]thiophen-3-yl-imidazo[1,2-a]pyridin-3-yl)-phenyl]-acetamide]: the IC50 was less than 1 µM.

Turning to `Cc1nn(C)c(C)c1-c1ccn2c(-c3cccc(NC(=O)NCC(F)(F)F)c3)cnc2c1` [Example 234, 1-(2,2,2-Trifluoro-ethyl)-3-{3-[7-(1,3,5-trimethyl-1H-pyrazol-4-yl)-imidazo[1,2-a]pyridin-3-yl]-phenyl}-urea], the IC50 is less than 1 µM.

Turning to `O=C(NCC(F)(F)F)Nc1cccc(-n2cnc3cc(-c4ccc(F)cc4)ccc32)c1` [Example 175, 1-{3-[5-(4-Fluoro-phenyl)-benzoimidazol-1-yl]-phenyl}-3-(2,2,2-trifluoro-ethyl)-urea], the IC50 is less than 1 µM.

For the molecule `O=C(NCC(F)(F)F)Nc1cccc(-c2cnc3cc(-c4ccc(F)cc4F)ccn23)c1` [Example 269, 1-{3-[7-(2,4-Difluoro-phenyl)-imidazo[1,2-a]pyridin-3-yl]-phenyl}-3-(2,2,2-trifluoro-ethyl)-urea], the IC50 was less than 1 µM.

Take `O=C1CN(Cc2cccc(-c3ccn4c(-c5cccc(NC(=O)NCC(F)(F)F)c5)cnc4c3)c2)CCN1` [Example 206, 1-(3-{7-[3-(3-Oxo-piperazin-1-ylmethyl)-phenyl]-imidazo[1,2-a]pyridin-3-yl}-phenyl)-3-(2,2,2-trifluoro-ethyl)-urea]: the IC50 is less than 1 µM.

On to `CCNC(=O)Nc1cccc(-n2cnc3cc(-c4ccc(F)cc4)ccc32)c1` [Example 159, 1-Ethyl-3-{3-[5-(4-fluoro-phenyl)-benzoimidazol-1-yl]-phenyl}-urea Hydrochloride], for which the IC50 was less than 1 µM.

As for `O=C(NCC(F)(F)F)Nc1cccc(-c2cnc3cc(-c4nnco4)ccn23)c1` [Example 330, 1-[3-(7-[1,3,4]Oxadiazol-2-yl-imidazo[1,2-a]pyridin-3-yl)-phenyl]-3-(2,2,2-trifluoro-ethyl)-urea], the IC50 was less than 1 µM.

Take `O=C(NCCF)Nc1cccc(-c2cnc3cc(-c4ccc(F)cc4)ccn23)c1` [Example 134, 1-(2-Fluoro-ethyl)-3-{3-[7-(4-fluoro-phenyl)-imidazo[1,2-a]pyridin-3-yl]-phenyl}-urea Hydrochloride]: the IC50 is less than 1 µM.

`CCNC(=S)Nc1cccc(-c2cnc3cc(-c4cccc(CN5CCN(C)CC5)c4)ccn23)c1` [Example 29, 1-Ethyl-3-(3-{7-[3-(4-methyl-piperazin-1-ylmethyl)-phenyl]-imidazo[1,2-a]pyridin-3-yl}-phenyl)-thiourea]: the IC50 is less than 1 µM.

With `CC(=O)Nc1cccc(-c2cnc3cc(-c4ccnc(N5CCN(C)CC5)c4)ccn23)c1` [Example 62, N-(3-{7-[2-(4-Methyl-piperazin-1-yl)-pyridin-4-yl]-imidazo[1,2-a]pyridin-3-yl}-phenyl)-acetamide], the IC50 is less than 1 µM.

Regarding `CCNC(=O)Nc1cccc(-c2cnc3cc(-c4ccnc(OC)c4)ccn23)c1` [Example 45, 1-Ethyl-3-{3-[7-(2-methoxy-pyridin-4-yl)-imidazo[1,2-a]pyridin-3-yl]-phenyl}-urea], the IC50 is less than 1 µM.

With `O=C(NCC(F)(F)F)Nc1cccc(-c2cnc3cc(-c4ccc(Cl)cc4)ccn23)c1` [Example 273, 1-{3-[7-(4-Chloro-phenyl)-imidazo[1,2-a]pyridin-3-yl]-phenyl}-3-(2,2,2-trifluoro-ethyl)-urea], the IC50 was less than 1 µM.

As for `O=C(NCC(F)(F)F)Nc1cccc(-c2cnn3cc(-c4cccc(CN5CCOCC5)c4)cnc23)c1` [Example 189, 1-{3-[6-(3-Morpholin-4-ylmethyl-phenyl)-pyrazolo[1,5-a]pyrimidin-3-yl]-phenyl}-3-(2,2,2-trifluoro-ethyl)-urea Hydrochloride], the IC50 is less than 1 µM.

Take `O=C(NCC(F)(F)F)Nc1cccc(-c2cnc3cc(-c4cnco4)ccn23)c1` [Example 240, 1-[3-(7-Oxazol-5-yl-imidazo[1,2-a]pyridin-3-yl)-phenyl]-3-(2,2,2-trifluoro-ethyl)-urea]: the IC50 was less than 1 µM.

With `CCNC(=O)Nc1cccc(-c2cnc3cc(-c4ccc(N(C)C)nc4)ccn23)c1` [Example 80, 1-{3-[7-(6-Dimethylamino-pyridin-3-yl)-imidazo[1,2-a]pyridin-3-yl]-phenyl}-3-ethyl-urea formate salt], the IC50 is less than 1 µM.

`Nc1ccc(-c2cnc3c(-c4cccc(NC(=O)NCC(F)(F)F)c4)cnn3c2)cn1` [Example 113, 1-{3-[6-(6-Amino-pyridin-3-yl)-pyrazolo[1,5-a]pyrimidin-3-yl]-phenyl}-3-(2,2,2-trifluoro-ethyl)-urea hydrochloride salt]: the IC50 was less than 1 µM.

Consider `CC(=O)Nc1cccc(-c2cnc3cc(-c4cccc(CO)c4)ccn23)c1` [Example 8, N-{3-[7-(3-Hydroxymeth-yl-phenyl)-imidazo[1,2-a]pyridin-3-yl]-phenyl}-acetamide], for which the IC50 is less than 1 µM.

Take `O=C(NCC(F)(F)F)Nc1cccc(-c2cnc3cc(-c4ccc(Cl)c(F)c4)ccn23)c1` [Example 280, 1-{3-[7-(4-Chloro-3-fluoro-phenyl)-imidazo[1,2-a]pyridin-3-yl]-phenyl}-3-(2,2,2-trifluoro-ethyl)-urea]: the IC50 is less than 1 µM.

For the molecule `CCNC(=O)Nc1cccc(-c2cnc3cc(-c4ccc(F)cc4)ccn23)c1` [Example 15, 1-Ethyl-3-{3-[7-(4-fluoro-phenyl)-imidazo[1,2-a]pyridin-3-yl]-phenyl}-urea formate salt], the IC50 was less than 1 µM.

For the molecule `O=C(NCC(F)(F)F)Nc1cccc(-c2cnc3cc(-c4ccc5c(c4)OCO5)ccn23)c1` [Example 141, Hydrochloride], the IC50 was less than 1 µM.

For `CCNC(=O)c1cccc(-c2ccn3c(-c4cccc(NC(=O)NCC(F)(F)F)c4)cnc3c2)c1` [Example 261, N-Ethyl-3-(3-{3-[3-(2,2,2-trifluoro-ethyl)-ureido]-phenyl}-imidazo[1,2-a]pyridin-7-yl)-benzamide Formate], the IC50 was less than 1 µM.

Turning to `O=C(NCC(F)(F)F)Nc1cccc(-c2cnc3cc(-c4cccc(CO)c4)ccn23)c1` [Example 219, 1-{3-[7-(3-Hydroxy-methyl-phenyl)-imidazo[1,2-a]pyridin-3-yl]-phenyl}-3-(2,2,2-trifluoro-ethyl)-urea], the IC50 was less than 1 µM.

The experiment is the same for the next values; noted with them: Homo sapiens, LP-1, read-out: LP-1 pERK ELISA (μM).
As to `Cc1c(-c2ccn3c(-c4cccc(NC(=O)NCC(F)(F)F)c4)cnc3c2)nnn1C` [Example 378, 1-{3-[7-(1,5-Dimethyl-1H-[1,2,3]triazol-4-yl)-imidazo[1,2-a]pyridin-3-yl]-phenyl}-3-(2,2,2-trifluoro-ethyl)-urea formate], the IC50 was 0.016 µM.
